From patent US9238643B2, “Amide compounds” (Guangzhou Institutes of Biomedicine and Health, Chinese …, priority 2010, dated 2016)

Test system: IL-1β secretion of BV2
Experiment: Inhibition of LPS-induced IL-1β secretion of BV2 microglial cells (ELISA)
Type: cell-based
Details: BV-2, 24 hours; for IC50: BV2 cells, 300 ng/ml LPS induction, IL-1β by ELISA, read-out: IC50 of inhibition of the compounds of the present application to IL-1β secretion of BV2; for inhibition at 0.02 µM: Mus musculus, IL-1β secretion of BV2, compound concentration 20 nM, LPS induction, read-out: Inhibition rate (%) at 20 nM
Protocol: 1. […] microglial cell BV2 and Glioma cell line C6 are incubated in DMEM culture medium with 10% FBS, and the 6th to 15th generation culture cells are applicable for compound activity selection. Culture cells are innoculated on the 24-well cell culturing plate with 50,000 cells/well, after one day culturing, switch to low serum medium (with 2% FBS) for another 16 hours culturing. Add 300 ng/ml (for induction of BV2 cells) or 1 mg/mL (for induction of C6 cells) LPS (Salmonella typhimutium) to the culture medium to induce the IL-1β secretion of culture cells. At the same time, add sample to be determined (with DMSO≦0.1%) at concentrations of 200 pM, 20 nM, 2 μM and 200 μM; add 0.1% DMSO to blank as solvent control.
2. 24 hours after LPS induction/drug treatment, collect the culture solution and quantitatively measure the level of IL-1β. Centrifuge the culture solution at 8,000 g for 10 min at 4° C., and remove the floating particle impurities. Dilute the supernant one time, and take 150 μL sample for ELISA (Biosource) measurement.
3. Treatment of culture cells and ELISA measurement are conducted with double blind method.
4 Inhibition efficiency of candidate compound is calculated according to formula, and IC50 of every kind of candidate compound is calculated. Inhibition efficiency(%)=([IL-1β]LPS induction−[IL-1β]medical treatment)/[IL-1β]LPS induction×100%. Formula
5. Efficiency evaluation of candidate compound: positive inhibition rate of compound to IL-1β secretion of BV2 is the standard judgment of compounds efficiency; negative inhibition rate of compound to IL-1β secretion of C6 is the standard judgment of compounds safety.

| SMILES | IC50 [nM] | inhibition at 0.02 µM [%] |
| --- | --- | --- |
| O=C(c1nc(-c2ccccc2)nc2ccccc12)N1CCN(c2ncccn2)CC1 [Compound 12a, (4-(pyrimid-2-yl)piperazinyl) (2-phenylquinazolinyl) ketone] | 0.16 | 46.1 |
| Cc1cc(-c2ccccc2)nnc1C(=O)N1CCN(c2ccc(F)cc2)CC1 [Compound 4, (4-(4-fluorophenyl)piperazinyl) (4-methyl-6-phenylpyridazinyl) ketone] | 0.56 | 54.6 |
| O=C(c1nc(-c2ccccc2)nc2ccccc12)N1CCN(c2ccccn2)CC1 [Compound 13, (4-(2-pyridinyl)piperazinyl)(2-phenylquinazolinyl)ketone] | 24.3 | – |
| Cc1cc(-c2ccccc2)nnc1C(=O)N1CCN(c2ncccn2)CC1 [Compound 5, (2-pyrimidylpiperazinyl)(4-methyl-6-phenylpyridazinyl)ketone] | 0.6 | 54.5 |
| O=C(c1nc(-c2ccccc2)nc2ccccc12)N1CCN(c2ncc(F)cn2)CC1 [Compound 12, (4-(5-fluoropyrimid-2-yl)piperazinyl)(2-phenylquinazolinyl) ketone] | 1.42 | – |
| Cc1cc(-c2ccccc2)nnc1C(=O)N1CCN(C)CC1 [Compound 26, (N-methylpiperazinyl) (4-methyl-6-phenylpyridazinyl) ketone] | 0.11 | – |
| Cc1cc(-c2ccccc2)nnc1C(=O)N1CCN(c2ncc(F)cn2)CC1 [Compound 24] | 5.49 | – |
| O=C(c1nc(-c2ccccc2)nc2ccccc12)N1CCN(c2ccc(F)cc2)CC1 [Compound 11, (4-(4-fluorophenyl)piperazinyl) (2-phenylquinazolinyl) ketone] | 3.38 | – |
| O=C(c1n[nH]c2c(F)ccc(F)c12)N1CCN(c2ccc(F)cc2)CC1 [Compound 20, (4-(4-fluorophenyl)piperazinyl) (4,7-difluoroindazol-3-yl) ketone] | 42.5 | 48.06 ± 0.0618 |
